Results: patent US20250108023A1, “Products for Masking Bitterness” (The Third People's Hospital of Henan Province, priority 2023, published 2025)
Like-named read-outs stand apart in the source and are kept apart here.

Tests used:
[1] = Oral spray bitterness masking taste test by volunteers with Coptis chinensis standard bitter solution; assay type: in vivo, healthy volunteers; set-up: key to bitterness value after drug: bitterness value 0.5–5.5; 1 = none, 5 = unbearable; conditions: for inhibition in vivo at 0.2 %: Homo sapiens, read-out: Reduction range; for bitterness value after drug: initial bitterness 4.0, 16 cases
Protocol: Purpose of the experiment: it is to screen out compounds that take effect within 5 seconds, last for 30-120 seconds, and it is expected, by using such kind of compounds, the taste of the drug cannot be felt during the duration (30-120 seconds) when taking the drug.
Principle of the experiment: simulate the process of taking medicine and using the taste masking agents, first spray about 0.5 ml of oral spray on the throat (3 times), and after it takes effect quickly, taste 10 ml of bitter standard solution to screen drugs that can be used in advance and can mask the bitter taste.
• 1: Volunteer screening. The research team strictly screened the recruited volunteers and finally selected healthy volunteers as subjects. They signed informed consent forms before the experiment; • 2: Standard bitterness sample preparation. The bitterness of the samples was divided into five levels, and each level was assigned a certain bitterness value range; • 3: The sensory standard was corrected by the oral taste evaluation method, that is, the sensory standard was corrected by comparing the taste evaluation of the volunteers with the established bitterness value of the reference sample group. Specific steps: when the volunteers are doing the oral tasting test, the reference solutions of various concentrations are placed in the tasting cups, and the volunteers hold one of the solutions in their mouths, time it, and rinse their mouths by using the solution so that the bitter taste perception area at the root and sides of the tongue can fully feel the bitter taste of the drug. […] Then dilute all the selected taste masking drugs, prepare the solution, take 10 ml and put it into the spray bottle, spray it into the mouth 3 times, stay for 5 seconds, drink 10 ml of standard bitterness solution, feel and record the bitterness value, keep the standard bitterness solution in the mouth until the bitterness rises, and record the retention time. • 5: Quality control. […] Since the experimental objects are biological samples and there are individual differences between different subjects, there may be individual outliers in the experimental test data. The Grubbs test method was used to exclude outliers in the data, and then the experimental data were plotted in tables and curves for data analysis.
It is necessary to process the experimental data. Specifically, the Grubbs test method was used to perform a circular test and elimination of outliers on the data, and a bilateral test was used to eliminate outliers in the oral test. Considering the characteristics of biological samples, the detection level was selected as 0.1 and the elimination level was selected as 0.05 in this experiment.
The experimental medicinal material processing method mentioned in the above technical scheme is as follows: Preparation of bitter standard solution, use 10 g of Coptis chinensis powder, add 100 ml of pure water above 90 degrees, stir, let stand for 20 minutes, take the supernatant for use, determine the standard bitterness of 4.0 degrees by oral tasting, dilute 5 times, determine the standard bitterness of 2.0 degrees, dilute 2.0 degrees again 5 times, determine the standard bitterness of 0.5 degrees. Compare with the bitterness scoring table, (level 1 means “no bitterness or almost no bitterness”, the bitterness value is 0.5˜1.5; level 2 means “slightly bitter”, the bitterness value is 1.5˜2.5; level 3 means “bitter but acceptable”, the bitterness value is 2.5˜3.5; level 4 means “very bitter, but still tolerable”, the bitterness value is 3.5˜4.5; level 5 means “unbearable bitterness”, the bitterness value is 4.5˜5.5). Adjust the judgment and cognition of bitterness.
The standard bitterness solution used in this experiment to verify the experimental effect is a 4.0 degree bitterness solution of Coptis chinensis prepared according to the above method.

[2] = target: T1, sodium ion channel of Trpm5 bitter receptor (Mus musculus, UniProt Q9JJH7); assay: Immunofluorescence experiment of sodium ion channels in mouse tongue cells stimulated with bitter agent; assay type: cell-based, mice; conditions: for blocking effect on the sodium ion channel (result analysis in words): judged from change of sodium ion fluorescence after bitter drug
T1 construct: Put the removed tongue in a 2 ml EP tube, add 1-1.5 ml of 0.25% trypsin solution; from tissue; host or cells: cells dissociated with trypsin from mouse tongue
T1 sequence (Q9JJH7 1-1158): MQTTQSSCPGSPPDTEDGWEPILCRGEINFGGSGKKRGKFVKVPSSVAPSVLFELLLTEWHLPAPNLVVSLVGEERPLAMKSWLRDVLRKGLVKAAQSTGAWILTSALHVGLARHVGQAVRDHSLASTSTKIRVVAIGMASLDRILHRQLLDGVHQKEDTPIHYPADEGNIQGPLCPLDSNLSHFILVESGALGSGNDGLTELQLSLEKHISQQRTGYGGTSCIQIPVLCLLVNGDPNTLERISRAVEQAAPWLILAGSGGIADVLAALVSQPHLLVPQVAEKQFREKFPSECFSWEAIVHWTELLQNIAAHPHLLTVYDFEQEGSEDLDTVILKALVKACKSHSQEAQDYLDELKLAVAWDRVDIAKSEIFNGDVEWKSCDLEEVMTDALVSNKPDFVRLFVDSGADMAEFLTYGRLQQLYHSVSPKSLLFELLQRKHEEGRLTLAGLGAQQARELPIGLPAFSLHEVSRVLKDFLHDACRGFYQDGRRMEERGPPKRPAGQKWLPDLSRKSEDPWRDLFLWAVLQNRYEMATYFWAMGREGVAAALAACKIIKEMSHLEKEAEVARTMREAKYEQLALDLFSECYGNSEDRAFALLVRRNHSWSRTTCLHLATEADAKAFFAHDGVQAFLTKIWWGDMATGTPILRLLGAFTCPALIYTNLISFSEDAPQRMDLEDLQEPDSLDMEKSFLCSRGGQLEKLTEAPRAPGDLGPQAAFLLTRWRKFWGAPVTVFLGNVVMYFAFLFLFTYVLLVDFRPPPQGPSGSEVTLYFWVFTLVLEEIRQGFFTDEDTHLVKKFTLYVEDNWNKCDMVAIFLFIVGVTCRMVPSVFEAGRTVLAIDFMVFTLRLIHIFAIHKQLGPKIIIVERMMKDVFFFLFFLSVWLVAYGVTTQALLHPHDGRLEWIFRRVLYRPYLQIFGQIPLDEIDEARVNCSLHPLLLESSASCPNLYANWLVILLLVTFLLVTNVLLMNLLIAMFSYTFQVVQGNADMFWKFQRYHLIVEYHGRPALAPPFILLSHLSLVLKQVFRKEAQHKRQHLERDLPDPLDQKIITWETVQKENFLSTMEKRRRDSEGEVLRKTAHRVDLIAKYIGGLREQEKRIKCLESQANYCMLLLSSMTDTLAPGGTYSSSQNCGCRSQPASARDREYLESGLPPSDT
Protocol: The mouse was killed by dislocation, and the tongue was removed (minimizing tongue bleeding), disinfected with alcohol for 2 minutes (adding sodium citrate for anticoagulation), and washed with D-Hanks solution or rinsed with 10 ml of saline solution drawn by a syringe.
Take out the centrifuge tube from the constant temperature incubator, shake for 2 minutes, blow the undigested tongue several times with the gun tip, take out the tongue, cover it with the EP tube cap, put it in a centrifuge, centrifuge at 3000 rpm for 3 minutes, discard the supernatant, add cell culture medium (containing 10% inactivated serum), blow and disperse the cells, and place it in a 37° C. constant temperature incubator for 30 min to allow the cells to recover.
(1) Take out the prepared ENG-2 AM storage solution and warm it to room temperature for use, keeping it away from light. The concentration of the pre-prepared stock solution is 2 mM and it is stored at −18° C. for future use.
(2) Dilute the ENG-2 AM+DMSO stock solution to a […] working solution using serum-free culture medium.
(3) Load the probe in a serum-free culture medium containing an appropriate concentration of AM probe.
Take out the cells from the incubator, centrifuge, and discard the culture medium. Wash the cells once with D-Hanks solution, centrifuge, and discard the culture medium. Add 1 ml of culture medium again, then add 300 ul of sodium ion probe dilution solution, blow and disperse the cells, and incubate the cells at room temperature or 37° C. for 1 hour.
At the end of incubation, centrifuge at 100 rpm for 2 minutes, discard the supernatant, add 500 ul of cell culture medium without AM probe, blow and disperse the cells, and incubate for 20-60 min to ensure that the cells completely deesterify the AM group.
(4) Take 10 ul of incubation solution and drop it into the center of the cell counting plate, cover it with a slide, and observe it under a fluorescence microscope.
(5) Use a low-power microscope to find the cells, open the fluorescence path, detect the fluorescence signal with a fluorescence microscope, change to a high-power microscope, find the appropriate observation cells, observe and take pictures to record the initial signal.
(2) Experimental drugs: Add 5 ul of the tested drug to one side of the cover glass on the cell counting plate, use absorbent paper to absorb water on the opposite side, let the solution soak the cells, and then use a fluorescence microscope to observe and take 3-5 photos, one every 1-2 minutes; then add 5 ul of the standard bitter drug to one side of the cover glass on the cell counting plate, use absorbent paper to absorb water on the opposite side, let the solution soak the cells, and then use a fluorescence microscope to observe and take 3-5 photos, one every 1-2 minutes.
(5) Data analysis: Use Image J-Fiji software to analyze the images, compare the average values of the fluorescence pixels, remove the base number and compare them in the table, draw FIGS. 4-6, and use SPSS18.0 to perform chi-square tests to compare the differences between the data groups.

[3] = 0.2% solution in 60% ethanol as oral spray, relative to original bitterness 4.0
[4] = Bitterant 60 s (2% metronidazole solution)
[5] = Bitterant 120 s (2% metronidazole solution)
[6] = Bitterant 180 s (2% metronidazole solution)
[7] = Initial (before addition of drug), sodium ion dye ENG-2 AM
[8] = Bitterant 240 s (2% metronidazole solution)

average value of fluorescence brightness ([2]; Addition of drugs) | average value of fluorescence brightness, base number removed ([2]; Addition of drugs) | average value of fluorescence brightness [2, 4] | average value of fluorescence brightness, base number removed [2, 4] | average value of fluorescence brightness [2, 5] | average value of fluorescence brightness, base number removed [2, 5] | average value of fluorescence brightness [2, 6] | average value of fluorescence brightness, base number removed [2, 6] | average value of fluorescence brightness, base number removed ([2]; Initial) | average value of fluorescence brightness [2, 7] | Compound | blocking effect on the sodium ion channel (result analysis in words) [2] | also measured
– | – | – | – | – | – | – | – | – | – | CCOC(=O)C1=C(COCCN)NC(C)=C(C(=O)OC)C1c1ccccc1Cl (stereo not shown) [Amlodipine, reference compound] | – | inhibition in vivo at 0.2 % [1, 3]: 0%
– | – | – | – | – | – | – | – | – | – | CC1(C)C2CCC1(C)C(O)C2 (stereo not shown) [Borneolum, 2-borneol] | – | Duration > ([1]; 0.2% solution in 60% ethanol as oral spray, retention time until bitterness rises): > 10 s; inhibition in vivo at 0.2 % [1, 3]: 52.5%; bitterness value after drug ([1]; concentration 0.001% in 60% ethanol): 4; bitterness value after drug ([1]; concentration 0.005% in 60% ethanol): 3.4; bitterness value after drug ([1]; concentration 0.02% in 60% ethanol): 2.6; bitterness value after drug ([1]; concentration 0.10% in 60% ethanol): 1.9; bitterness value after drug ([1]; concentration 0.50% in 60% ethanol): 2.2
– | – | – | – | – | – | – | – | – | – | Cc1ccc(C(C)C)cc1O [Carvacrol] | – | inhibition in vivo at 0.2 % ([1]; po): 0%
27.367 | 0.082 | 27.287 | 0.002 | 27.21 | −0.075 | 27.127 | −0.158 | 0 | 27.285 | NCCCC(=O)O [GABA, 4-aminobutyric acid] | have poor effects and do not have bitterness masking effect | –
28.425 | −0.113 | 28.141 | −0.397 | 27.831 | −0.707 | 28.191 | −0.347 | 0 | 28.538 | CC1CCC(C(C)C)C(OC(=O)C(C)O)C1 (stereo not shown) [Menthyl lactate, 2-hydroxypropionic acid-5-methyl-2-(1-methylethyl)cyclohexyl ester] | can block the sodium ion channel of Trpm5 bitter receptor | –
28.082 | 0.093 | 27.496 | −0.493 | 27.697 | −0.292 | 27.919 | −0.07 | 0 | 27.989 | Hydroxyvanillic acid | have poor effects and do not have bitterness masking effect | –

Compound | average value of fluorescence brightness ([2]; Addition of drugs) | average value of fluorescence brightness, base number removed ([2]; Addition of drugs) | average value of fluorescence brightness [2, 4] | average value of fluorescence brightness, base number removed [2, 4] | average value of fluorescence brightness [2, 5] | average value of fluorescence brightness, base number removed [2, 5] | average value of fluorescence brightness [2, 6] | average value of fluorescence brightness, base number removed [2, 6] | average value of fluorescence brightness, base number removed ([2]; Initial) | average value of fluorescence brightness [2, 7] | blocking effect on the sodium ion channel (result analysis in words) [2] | also measured
CC1CCC(C(C)C)C(O)C1 (stereo not shown) [Menthol, 2-isopropyl-5-methylcyclohexanol] | 22.118 | −0.435 | 22.04 | −0.513 | 21.924 | −0.629 | 21.907 | −0.646 | 0 | 22.553 | can block the sodium ion channel of Trpm5 bitter receptor | average value of fluorescence brightness [2, 8]: 20.562; average value of fluorescence brightness, base number removed [2, 8]: −1.991
